Like-named read-outs stand apart in the source and are kept apart here.
System: NLRP3 inflammasome pathway
Assay: NLRP3 inflammasome pathway activation assay (IL-1β release, HTRF)
Format: cell-based, Human
Conditions: for IC50: IL-1β release, PMA-differentiated, LPS-primed cells; for inhibition of IL-1 beta release compared to the equivalent compounds in which Z1=C and Z2=N: human monocyte-like cells, MSU or Nigericin as activators, 8 vs 13, 11 vs 12
Procedure: The following assays were used to determine the inhibitory activity of test compounds on the NLRP3 inflammasome pathway using common stimuli Nigericin (Invivogen) or monosodium urate crystals (MSU) (Invivogen).
Human monocyte-like cells were seeded at 25000 per well in a 384-well plate and were differentiated overnight into macrophages with 10 ng/ml PMA (Phorbol Myristate Acetate). The following day, medium containing 10 ng/ml LPS (Lipopolysaccharide) was added.
For IL-1β quantification, supernatants were analyzed using HTRF kit according to the manufacturer's instructions (Cisbio 62HIL1BPEH), Briefly, in a 384-well ProxiPlate™ microplate, 8 μl of sample was mixed, with 5 μl of Anti-IL1β Cryptate antibody (40×) and Anti-IL1β XL antibody (40×). Then, incubated overnight at RT. Reading was done using an EnVision Reader (PerkinElmer).

[1] = Homo sapiens, stimulation with MSU 200 μg/ml for 3 h, read-out: IC50 Human monocyte-like cells MSU
[2] = Homo sapiens, stimulation with Nigericin 3.75 μM for 3 h, read-out: IC50 Human monocyte-like cells Nigericin
[3] = stimulation with MSU 200 μg/ml for 3 h, read-out: IC50 Human monocyte-like cells MSU
[4] = stimulation with Nigericin 3.75 μM for 3 h, read-out: IC50 Human monocyte-like cells Nigericin

| Structure (SMILES) | IC50 [1] | IC50 [2] | further results |
| --- | --- | --- | --- |
| CN1CCC[C@@H](Nc2nnc(-c3ccc(C(F)(F)F)cc3O)n3cccc23)C1 [Example 1, (R)-2-(1-((1-methylpiperidin-3-yl)amino)pyrrolo[1,2-d][1,2,4]triazin-4-yl)-5-(trifluoromethyl)phenol] | < 5 nM | < 5 nM |  |
| CN1CCC[C@@H](Nc2nnc(-c3ccc(C(F)(F)F)cc3O)n3nccc23)C1 [Example 2, (R)-2-(4-((1-methylpiperidin-3-yl)amino)pyrazolo[1,5-d][1,2,4]triazin-7-yl)-5-(trifluoromethyl)phenol] | 5 to 20 nM |  |  |
| CN1CCC[C@@H](Nc2nnc(-c3ccc(OC(F)F)cc3)n3cccc23)C1 [Example 3, (R)-4-(4-(difluoromethoxy)phenyl)-N-(1-methylpiperidin-3-yl)pyrrolo[1,2-d][1,2,4]triazin-1-amine] | 5 to 20 nM |  |  |
| CN1CCC[C@@H](Nc2nnc(-c3ccc(OC(F)(F)F)cc3)n3cccc23)C1 [Example 4, (R)-N-(1-methylpiperidin-3-yl)-4-(4-(trifluoromethoxy)phenyl)pyrrolo[1,2-d][1,2,4]triazin-1-amine] | 20 to 100 nM | 20 to 100 nM |  |
| CN1CCC[C@@H](Nc2nnc(-c3ccc(Cl)cc3)n3ccnc23)C1 [Example 6, 5-(4-Chlorophenyl)-N-[(3R)-1-methyl-3-piperidyl]imidazo[1,2-d][1,2,4]triazin-8-amine] | 20 to 100 nM |  |  |
| CC1(O)CC(Oc2nnc(-c3ccc(C(F)(F)F)cc3O)n3cccc23)C1 (centres unmarked) [Example 8, 2-(1-((1s,3s)-3-hydroxy-3-methylcyclobutoxy)pyrrolo[1,2-d][1,2,4]triazin-4-yl)-5-(trifluoromethyl)phenol] | < 5 nM | 5 to 20 nM | inhibition of IL-1 beta release compared to the equivalent compounds in which Z1=C and Z2=N: significantly increased inhibition |
| CN1CC[C@@H](Nc2nnc(-c3ccc(Cl)cc3O)n3ccnc23)C1 [Example 9] | 20 to 100 nM |  |  |
| C[C@]1(O)C[C@@H](Nc2nnc(-c3ccc(C(F)(F)F)cc3O)n3ccc(F)c23)C1 [Example 10, 2-(8-Fluoro-1-(((1s,3s)-3-hydroxy-3-methylcyclobutyl)amino)pyrrolo[1,2-d][1,2,4]triazin-4-yl)-5-(trifluoromethyl)phenol] | < 5 nM |  |  |
| C[C@]1(O)C[C@@H](Nc2nnc(-c3ccc(C(F)(F)F)cc3O)c3cccn23)C1 [Example 11, 2-(4-(((1s,3s)-3-hydroxy-3-methylcyclobutyl)-amino)pyrrolo[1,2-d][1,2,4]triazin-1-yl)-5-(trifluoromethyl)phenol] | < 5 nM | 5 to 20 nM | inhibition of IL-1 beta release compared to the equivalent compounds in which Z1=C and Z2=N: significantly increased inhibition |
| C[C@]1(O)C[C@@H](Nc2nnc(-c3ccc(C(F)(F)F)cc3O)n3cccc23)C1 [Example 12, 2-(1-(((1s,3s)-3-hydroxy-3-methylcyclobutyl)amino)pyrrolo[1,2-d][1,2,4]triazin-4-yl)-5-(trifluoromethyl)phenol] |  |  | IC50 [3]: 5 to 20 nM; IC50 [4]: 20 to 100 nM |
| C[C@]1(O)C[C@@H](Oc2nnc(-c3ccc(C(F)(F)F)cc3O)c3cccn23)C1 [Example 13, 2-(4-((1s,3s)-3-Hydroxy-3-methylcyclobutoxy)pyrrolo[1,2-d][1,2,4]triazin-1-yl)-5-(trifluoromethyl)phenol] |  |  | IC50 [3]: 5 to 20 nM; IC50 [4]: 20 to 100 nM |
| CCN1CCC[C@@H](Nc2nnc(-c3ccc(Cl)cc3O)n3ccnc23)C1 [Example 15] | < 5 nM |  |  |
